Measured values from ChEMBL document CHEMBL5131407, “Design, synthesis and activity evaluation of prodrug form JBP485 and Vitamin E for alleviation of NASH” (Bioorg Med Chem Lett, 2022).
Activity calls are given as the source filed them.

Key:
Format in all cases: functional, organism-based
[1] = test system: Mus musculus; test: Anti-NASH activity in CCl4-induced nonalcoholic steatohepatitis C57BL mouse assessed as decrease in IL-17A expression at 60 mg/kg checked in presence of JBP485 by flow cytometry; conditions: time 14.0 day
[2] = test system: Mus musculus; test: Anti-NASH activity in CCl4-induced nonalcoholic steatohepatitis C57BL mouse assessed as reduction in malondialdehyde level at 60 mg/kg checked in presence of JBP485
[3] = test system: Mus musculus; test: Anti-NASH activity in CCl4-induced nonalcoholic steatohepatitis C57BL mouse assessed as reduction in liver lobular inflammation at 60 mg/kg by H and E staining based assay
[4] = test system: Mus musculus; test: Anti-NASH activity in CCl4-induced nonalcoholic steatohepatitis C57BL mouse assessed as reduction in liver index at 60 mg/kg checked in presence of 30 to 100 mg/kg JBP485
[5] = test system: Mus musculus; test: Anti-NASH activity in CCl4-induced nonalcoholic steatohepatitis C57BL mouse assessed as reduction in liver fibrosis at 60 mg/kg by sirius red staining based assay
[6] = test system: Mus musculus; test: Anti-NASH activity in CCl4-induced nonalcoholic steatohepatitis C57BL mouse assessed as reduction in steatosis at 60 mg/kg by H and E staining based assay
[7] = test system: Mus musculus; test: Anti-NASH activity in CCl4-induced nonalcoholic steatohepatitis C57BL mouse assessed as reduction in liver lobular inflammation at 60 mg/kg checked in presence of 30 to 100 mg/kg JBP485 by H and E staining based assay
[8] = test system: Mus musculus; test: Anti-NASH activity in CCl4-induced nonalcoholic steatohepatitis C57BL mouse assessed as reduction in LDH level at 60 mg/kg checked in presence of JBP485
[9] = test system: Mus musculus; test: Anti-NASH activity in CCl4-induced nonalcoholic steatohepatitis C57BL mouse assessed as decrease in IFN expression at 60 mg/kg checked in presence of JBP485 by flow cytometry; conditions: time 14.0 day
[10] = test system: Mus musculus; test: Anti-NASH activity in CCl4-induced nonalcoholic steatohepatitis C57BL mouse assessed as reduction in liver ballooning degeneration at 60 mg/kg checked in presence of 30 to 100 mg/kg JBP485 by H and E staining based assay
[11] = test system: Mus musculus; test: Anti-NASH activity in CCl4-induced nonalcoholic steatohepatitis C57BL mouse assessed as reduction in liver index at 60 mg/kg
[12] = test system: Mus musculus; test: Anti-NASH activity in CCl4-induced nonalcoholic steatohepatitis C57BL mouse at 60 mg/kg by Oil red-O staining based assay
[13] = test system: Mus musculus; test: Anti-NASH activity in CCl4-induced nonalcoholic steatohepatitis C57BL mouse assessed as decrease in IL-2 expression at 60 mg/kg checked in presence of JBP485 by flow cytometry; conditions: time 14.0 day
[14] = test system: Mus musculus; test: Anti-NASH activity in CCl4-induced nonalcoholic steatohepatitis C57BL mouse assessed as reduction in serum ALT level at 60 mg/kg checked in presence of 30 to 100 mg/kg JBP485
[15] = test system: Mus musculus; test: Anti-NASH activity in CCl4-induced nonalcoholic steatohepatitis C57BL mouse assessed as reduction in triglyceride level at 60 mg/kg checked in presence of JBP485
[16] = test system: Mus musculus; test: Anti-NASH activity in CCl4-induced nonalcoholic steatohepatitis C57BL mouse assessed as reduction in liver fibrosis at 60 mg/kg checked in presence of 30 to 100 mg/kg JBP485 by sirius red staining based assay
[17] = test system: Mus musculus; test: Anti-NASH activity in CCl4-induced nonalcoholic steatohepatitis C57BL mouse assessed as reduction in triglyceride level at 60 mg/kg
[18] = test system: Mus musculus; test: Anti-NASH activity in CCl4-induced nonalcoholic steatohepatitis C57BL mouse assessed as reduction in total cholesterol level at 60 mg/kg
[19] = test system: Mus musculus; test: Anti-NASH activity in CCl4-induced nonalcoholic steatohepatitis C57BL mouse assessed as reduction in steatosis at 60 mg/kg checked in presence of 30 to 100 mg/kg JBP485 by H and E staining based assay
[20] = test system: Mus musculus; test: Anti-NASH activity in CCl4-induced nonalcoholic steatohepatitis C57BL mouse assessed as reduction in liver ballooning degeneration at 60 mg/kg by H and E staining based assay
[21] = test system: Mus musculus; test: Anti-NASH activity in CCl4-induced nonalcoholic steatohepatitis C57BL mouse assessed as reduction in serum AST level at 60 mg/kg checked in presence of 30 to 100 mg/kg JBP485
[22] = test system: Mus musculus; test: Anti-NASH activity in CCl4-induced nonalcoholic steatohepatitis C57BL mouse at 60 mg/kg checked in presence of 30 to 100 mg/kg JBP485 by Oil red-O staining based assay
[23] = test system: Mus musculus; test: Anti-NASH activity in CCl4-induced nonalcoholic steatohepatitis C57BL mouse assessed as reduction in malondialdehyde level at 60 mg/kg
[24] = test system: Mus musculus; test: Anti-NASH activity in CCl4-induced nonalcoholic steatohepatitis C57BL mouse assessed as reduction in total cholesterol level at 60 mg/kg checked in presence of JBP485
[25] = test system: Mus musculus; test: Anti-NASH activity in CCl4-induced nonalcoholic steatohepatitis C57BL mouse assessed as reduction in liver ballooning degeneration at 100 mg/kg by H and E staining based assay
[26] = test system: Mus musculus; test: Anti-NASH activity in CCl4-induced nonalcoholic steatohepatitis C57BL mouse assessed as reduction in LDH level at 100 mg/kg checked in presence of vitamin E
[27] = test system: Mus musculus; test: Anti-NASH activity in CCl4-induced nonalcoholic steatohepatitis C57BL mouse assessed as decrease in IFN expression at 100 mg/kg checked in presence of vitamin E by flow cytometry; conditions: time 14.0 day
[28] = test system: Mus musculus; test: Anti-NASH activity in CCl4-induced nonalcoholic steatohepatitis C57BL mouse assessed as reduction in serum AST level at 30 to 100 mg/kg checked in presence of vitamin E; conditions: dose 30-100 mg/kg
[29] = test system: Mus musculus; test: Anti-NASH activity in CCl4-induced nonalcoholic steatohepatitis C57BL mouse assessed as reduction in malondialdehyde level at 100 mg/kg administered for 14 days; conditions: time 14.0 day
[30] = test system: Mus musculus; test: Anti-NASH activity in CCl4-induced nonalcoholic steatohepatitis C57BL mouse assessed as reduction in steatosis at 100 mg/kg by H and E staining based assay
[31] = test system: Mus musculus; test: Anti-NASH activity in CCl4-induced nonalcoholic steatohepatitis C57BL mouse assessed as reduction in total cholesterol level at 30 mg/kg checked in presence of vitamin E
[32] = test system: Mus musculus; test: Anti-NASH activity in CCl4-induced nonalcoholic steatohepatitis C57BL mouse assessed as reduction in total cholesterol level at 100 mg/kg administered for 14 days; conditions: time 14.0 day
[33] = test system: Mus musculus; test: Anti-NASH activity in CCl4-induced nonalcoholic steatohepatitis C57BL mouse assessed as decrease in IL-17A expression at 30 mg/kg checked in presence of vitamin E by flow cytometry; conditions: time 14.0 day
[34] = test system: Mus musculus; test: Anti-NASH activity in CCl4-induced nonalcoholic steatohepatitis C57BL mouse assessed as reduction in serum ALT level at 30 to 100 mg/kg checked in presence of vitamin E; conditions: dose 30-100 mg/kg
[35] = test system: Mus musculus; test: Anti-NASH activity in CCl4-induced nonalcoholic steatohepatitis C57BL mouse assessed as reduction in liver index at 30 to 100 mg/kg checked in presence of 60 mg/kg vitamin E; conditions: dose 30-100 mg/kg
[36] = test system: Mus musculus; test: Anti-NASH activity in CCl4-induced nonalcoholic steatohepatitis C57BL mouse assessed as reduction in steatosis at 30 to 100 mg/kg checked in presence of vitamin E by H and E staining based assay; conditions: dose 30-100 mg/kg
[37] = test system: Mus musculus; test: Anti-NASH activity in CCl4-induced nonalcoholic steatohepatitis C57BL mouse assessed as reduction in liver ballooning degeneration at 30 to 100 mg/kg checked in presence of vitamin E by H and E staining based assay; conditions: dose 30-100 mg/kg
[38] = test system: Mus musculus; test: Anti-NASH activity in CCl4-induced nonalcoholic steatohepatitis C57BL mouse assessed as reduction in triglyceride level at 30 mg/kg checked in presence of vitamin E
[39] = test system: Mus musculus; test: Anti-NASH activity in CCl4-induced nonalcoholic steatohepatitis C57BL mouse at 30 to 100 mg/kg checked in presence of vitamin E by Oil red-O staining based assay; conditions: dose 30-100 mg/kg
[40] = test system: Mus musculus; test: Anti-NASH activity in CCl4-induced nonalcoholic steatohepatitis C57BL mouse assessed as reduction in liver lobular inflammation at 100 mg/kg by H and E staining based assay
[41] = test system: Mus musculus; test: Anti-NASH activity in CCl4-induced nonalcoholic steatohepatitis C57BL mouse assessed as decrease in IL-2 expression at 30 mg/kg checked in presence of vitamin E by flow cytometry; conditions: time 14.0 day
[42] = test system: Mus musculus; test: Anti-NASH activity in CCl4-induced nonalcoholic steatohepatitis C57BL mouse assessed as reduction in triglyceride level at 100 mg/kg administered for 14 days; conditions: time 14.0 day
[43] = test system: Mus musculus; test: Anti-NASH activity in CCl4-induced nonalcoholic steatohepatitis C57BL mouse at 100 mg/kg by Oil red-O staining based assay
[44] = test system: Mus musculus; test: Anti-NASH activity in CCl4-induced nonalcoholic steatohepatitis C57BL mouse assessed as reduction in malondialdehyde level at 30 mg/kg checked in presence of vitamin E
[45] = test system: Mus musculus; test: Anti-NASH activity in CCl4-induced nonalcoholic steatohepatitis C57BL mouse assessed as reduction in liver fibrosis at 100 mg/kg by sirius red staining based assay
[46] = test system: Mus musculus; test: Anti-NASH activity in CCl4-induced nonalcoholic steatohepatitis C57BL mouse assessed as reduction in liver index at 100 mg/kg
[47] = test system: Mus musculus; test: Anti-NASH activity in CCl4-induced nonalcoholic steatohepatitis C57BL mouse assessed as reduction in liver lobular inflammation at 30 to 100 mg/kg checked in presence of vitamin E by H and E staining based assay; conditions: dose 30-100 mg/kg
[48] = test system: Mus musculus; test: Anti-NASH activity in CCl4-induced nonalcoholic steatohepatitis C57BL mouse assessed as reduction in liver fibrosis at 30 to 100 mg/kg checked in presence of vitamin E by sirius red staining based assay; conditions: dose 30-100 mg/kg
[49] = test system: Mus musculus; test: Anti-NASH activity in CCl4-induced nonalcoholic steatohepatitis C57BL mouse assessed as reduction in serum AST level at 100 mg/kg
[50] = test system: Mus musculus; test: Anti-NASH activity in CCl4-induced nonalcoholic steatohepatitis C57BL mouse assessed as decrease in IFN expression at 100 mg/kg by flow cytometry; conditions: time 14.0 day
[51] = test system: Mus musculus; test: Anti-NASH activity in CCl4-induced nonalcoholic steatohepatitis C57BL mouse assessed as reduction in HYP content in liver at 100 mg/kg administered for 14 days; conditions: time 14.0 day
[52] = test system: Mus musculus; test: Anti-NASH activity in CCl4-induced nonalcoholic steatohepatitis C57BL mouse assessed as reduction in serum ALT level at 100 mg/kg
[53] = test system: Mus musculus; test: Anti-NASH activity in CCl4-induced nonalcoholic steatohepatitis C57BL mouse assessed as decrease in IL-2 expression at 100 mg/kg by flow cytometry; conditions: time 14.0 day
[54] = test system: Mus musculus; test: Anti-NASH activity in CCl4-induced nonalcoholic steatohepatitis C57BL mouse assessed as decrease in IL-17A expression at 100 mg/kg by flow cytometry; conditions: time 14.0 day
[55] = test system: Mus musculus; test: Anti-NASH activity in CCl4-induced nonalcoholic steatohepatitis C57BL mouse assessed as reduction in LDH level at 100 mg/kg

Measured: Activity

VITAMIN E
active: [1] | [2] | [3] | [4] | [5] | [6] | [7] | [8] | [9] | [10] | [11] | [12] | [13] | [14] | [15] | [16] | [17] | [18] | [19] | [20] | [21] | [22] | [23] | [24]

O=C1N[C@@H](CO)C(=O)N2C[C@H](O)C[C@@H]12
active: [25] | [26] | [27] | [28] | [29] | [30] | [31] | [32] | [33] | [34] | [35] | [36] | [37] | [38] | [39] | [40] | [41] | [42] | [43] | [44] | [45] | [46] | [47] | [48]

Cc1c(C)c2c(c(C)c1OC(=O)CCC(=O)O[C@@H]1C[C@H]3C(=O)N[C@@H](CO)C(=O)N3C1)CC[C@@](C)(CCC[C@H](C)CCC[C@H](C)CCCC(C)C)O2
active: [25] | [29] | [30] | [49] | [32] | [40] | [50] | [51] | [52] | [42] | [43] | [45] | [46] | [53] | [54] | [55]
